The source of these data is PMC9110766, “Structure-Based Design of 2-Aminopurine Derivatives as CDK2 Inhibitors for Triple-Negative Breast Cancer” (Frontiers in Pharmacology, 2022).

The target of data set [1] is CDK2/cyclin A (Homo sapiens, UniProt P24941). Description: CDK2 inhibition, Kinase-Glo Luminescent Kinase Assay. It is filed as biochemical. The note with it: for IC50: geometric means of n ⩾ 3 experiments, 10 µM ATP, read-out: IC50 against CDK2; for inhibition at 0.5 µM: read-out: inhibition rate (%) @0.5 μM against CDK2, compound at 0.5 μM; for CDK2 inhibitory activity (in words): screened at 0.5 μM. How it is done: The IC50 values were calculated using Prism GraphPad software.

The test system of data set [2] is CDK2/A. Particulars: cited from earlier work.
Data set [3] has as its system CDK1/B. Particulars: cited from earlier work.
Data set [4] deals with CDK4/D3. Set-up: method as in Fry et al., 2004. Particulars: ref Fry et al., 2004; cited from earlier work.
Data set [5] relates to CDK4/D1. Set-up: method as in Fry et al., 2004. The note with it: ref Fry et al., 2004; cited from earlier work.
Data set [6] deals with CDK6/D2. Set-up: method as in Fry et al., 2004. Particulars: ref Fry et al., 2004; cited from earlier work.
The target of data set [7] is CDK1/cyclin B (Homo sapiens, UniProt P06493). The data set is described as follows: CDK1 inhibition, Kinase-Glo Luminescent Kinase Assay. It is filed as biochemical. Particulars: for selectivity for CDK2 over CDK1: ratio of IC50 values. The procedure: (§1) Experiments were carried out using the Kinase-Glo® Luminescent Kinase Assays as described previously ([Kashem et al., 2007]). Briefly, all enzymatic reactions were conducted at 30°C for 40 min. The 50 µl reaction mixture contains 40 mM Tris, pH 7.4, 10 mM MgCl2, 0.1 mg/ml BSA, 1 mM DTT, 10 µM ATP, 0.2 μg/ml CDKs, and 100 μM lipid substrate. The compounds were diluted with 10% DMSO and then 5 µl of the dilution was removed and put into the subsequent reaction. The kinase activities were measured by detecting the content of remaining ATP. The luminescent signal was correlated with the amount of residual ATP and negatively correlated with the amount of kinase activity. The IC50 values were calculated using Prism GraphPad software.
CDK1/cyclin B, sequence (P06493 whole entry): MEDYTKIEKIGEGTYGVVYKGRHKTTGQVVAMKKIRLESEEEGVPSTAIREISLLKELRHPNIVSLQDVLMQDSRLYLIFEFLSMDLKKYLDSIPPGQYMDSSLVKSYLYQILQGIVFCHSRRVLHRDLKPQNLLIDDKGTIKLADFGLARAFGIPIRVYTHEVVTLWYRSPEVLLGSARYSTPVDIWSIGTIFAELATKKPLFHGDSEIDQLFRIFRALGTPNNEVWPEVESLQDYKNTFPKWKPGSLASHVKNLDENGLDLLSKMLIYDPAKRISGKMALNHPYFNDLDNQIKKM
CDK1/cyclin B, sequence (P14635 whole entry partner): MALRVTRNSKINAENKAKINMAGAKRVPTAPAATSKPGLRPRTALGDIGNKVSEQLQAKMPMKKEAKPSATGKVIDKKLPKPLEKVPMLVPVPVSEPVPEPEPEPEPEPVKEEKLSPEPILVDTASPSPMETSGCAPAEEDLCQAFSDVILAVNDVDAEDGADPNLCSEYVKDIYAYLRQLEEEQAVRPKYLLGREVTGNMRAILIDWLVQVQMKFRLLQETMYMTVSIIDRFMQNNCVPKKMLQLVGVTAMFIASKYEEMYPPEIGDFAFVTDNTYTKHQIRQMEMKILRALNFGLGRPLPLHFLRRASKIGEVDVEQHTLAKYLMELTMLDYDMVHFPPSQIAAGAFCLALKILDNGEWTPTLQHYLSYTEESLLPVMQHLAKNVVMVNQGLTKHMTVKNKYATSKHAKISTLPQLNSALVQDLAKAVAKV
(In Kinase-Glo more light means more ATP remaining.)

Data set [8] deals with CDK6/cyclin D3 (Homo sapiens, UniProt Q00534). Description: CDK6 inhibition, Kinase-Glo Luminescent Kinase Assay. Format: biochemical. Particulars: for selectivity for CDK2 over CDK6: ratio of IC50 values. The procedure:
as §1

For data set [9], the target named is CDK8/cyclin C (Homo sapiens, UniProt P49336). The data set is described as follows: CDK8 inhibition, Kinase-Glo Luminescent Kinase Assay. Format: biochemical. The note with it: for selectivity for CDK2 over CDK8: CDK8 inhibition <20% @ 5 μM; for CDK8/cyclin C Inhibition rate @5 μM (%) / inhibition at 5 µM: compound at 5 μM; for inhibition at 5 µM: read-out: CDK8/cyclin C Inhibition rate @5 μM (%). The procedure: as §1
CDK8/cyclin C, sequence (P49336 whole entry): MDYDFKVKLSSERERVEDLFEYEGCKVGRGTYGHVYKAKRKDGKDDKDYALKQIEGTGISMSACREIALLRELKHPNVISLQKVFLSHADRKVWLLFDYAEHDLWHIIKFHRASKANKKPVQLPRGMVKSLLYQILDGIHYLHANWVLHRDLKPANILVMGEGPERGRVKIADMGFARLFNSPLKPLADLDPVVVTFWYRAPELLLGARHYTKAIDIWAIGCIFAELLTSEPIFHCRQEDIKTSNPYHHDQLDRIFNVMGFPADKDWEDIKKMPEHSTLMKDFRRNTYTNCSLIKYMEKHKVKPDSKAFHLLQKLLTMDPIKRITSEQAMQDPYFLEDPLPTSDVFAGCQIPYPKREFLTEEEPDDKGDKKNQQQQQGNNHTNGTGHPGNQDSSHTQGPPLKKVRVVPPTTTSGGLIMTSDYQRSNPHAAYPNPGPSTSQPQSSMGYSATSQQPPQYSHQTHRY
CDK8/cyclin C, sequence (P24863 whole entry partner): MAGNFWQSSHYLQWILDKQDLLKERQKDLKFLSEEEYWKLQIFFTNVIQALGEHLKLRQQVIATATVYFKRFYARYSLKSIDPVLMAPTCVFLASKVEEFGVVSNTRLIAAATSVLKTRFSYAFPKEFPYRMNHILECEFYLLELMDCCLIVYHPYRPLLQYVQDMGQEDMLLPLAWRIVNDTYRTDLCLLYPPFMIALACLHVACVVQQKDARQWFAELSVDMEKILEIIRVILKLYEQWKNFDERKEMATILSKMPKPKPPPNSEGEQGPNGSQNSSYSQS

Data set [10] relates to MDA-MB-231 cells. The data set is described as follows: Anti-proliferation test (MTT). It is filed as cell-based. Particulars: Homo sapiens, 48 h.
The test system of data set [11] is MDA-MB-231 cells. Description: Cell cycle analysis (PI staining, flow cytometry). It is filed as cell-based, human. Particulars: 20 μM, 24 h, compared with negative control group. The procedure: MDA-MB-231 cells were seeded in six-well plates and incubated with 20 μM compounds 11c, 11l, 11p, and vehicle (0.2% DMSO) for 24 h. Subsequently, cells were centrifugated and washed with cold PBS buffer. After the centrifugation, the supernatants were removed, and the cells were resuspended in PBS buffer. Then, 10 μl of PI were added and the cells were incubated in the dark for 15 min at room temperature. The stained cells were analyzed by a flow cytometer (BD Accuri C6).
Background: A flow cytometer gives signals particle by particle.

Data set [12] can be described thus: Cytotoxicity (MTT) in human embryonic kidney cells. The note with it: 293T cells. Format: cell-based. How it is done: Standard MTT (thiazolyl blue; 3-[4,5-dimethylthiazol-2-yl]-2,5-diphenyltetrazolium bromide) assays were performed as 5 mg/ml. Briefly, MDA-MB-231 or 293T cells were seeded into 96-well plates and incubated for 24 h at 37°C. All compounds were dissolved in DMSO, and a gradient dilution series were prepared in 100 μl of cell medium, added to cells (in triplicates), and incubated for 48 h at 37°C with 5% CO2. MTT was added (5 mg/ml, 20 μl) to each plate and these mixtures were incubated for another 4 h. Then, the medium was removed, and the mixture was completely dissolved in DMSO (200 μL) after shaking for 10 min.

Each structure is given as a SMILES string. Like-named read-outs stand apart in the source and are kept apart here.

CDK6/cyclin D3, sequence (Q00534 whole entry): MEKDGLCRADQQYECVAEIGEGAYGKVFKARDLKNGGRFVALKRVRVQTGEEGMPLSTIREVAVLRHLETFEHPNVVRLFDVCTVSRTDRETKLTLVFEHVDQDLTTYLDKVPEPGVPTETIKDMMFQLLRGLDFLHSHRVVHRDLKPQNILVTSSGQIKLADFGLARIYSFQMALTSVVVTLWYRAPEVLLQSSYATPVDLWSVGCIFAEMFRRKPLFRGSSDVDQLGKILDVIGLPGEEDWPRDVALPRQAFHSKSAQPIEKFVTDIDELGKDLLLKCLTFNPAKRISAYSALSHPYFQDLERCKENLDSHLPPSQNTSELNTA
CDK6/cyclin D3, sequence (P30281 whole entry partner): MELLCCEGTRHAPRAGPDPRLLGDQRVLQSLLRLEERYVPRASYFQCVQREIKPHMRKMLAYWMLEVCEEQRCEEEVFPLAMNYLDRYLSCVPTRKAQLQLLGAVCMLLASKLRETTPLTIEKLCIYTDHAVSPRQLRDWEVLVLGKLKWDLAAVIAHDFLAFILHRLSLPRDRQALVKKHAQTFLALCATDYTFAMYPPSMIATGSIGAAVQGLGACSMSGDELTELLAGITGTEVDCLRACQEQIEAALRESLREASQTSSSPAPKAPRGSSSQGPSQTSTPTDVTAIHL

As a reminder, the IC50 is the concentration at which inhibition is half-maximal. As a reminder, the melting point is the temperature, or range, at which the solid turns liquid. `Cl.Nc1cccc(-c2nc(Nc3cccc([N+](=O)[O-])c3)nc3[nH]cnc23)c1` [Compound 11a, 6-(3-aminophenyl)-N-(3-nitrophenyl)-9H-purin-2-amine hydrochloride] displayed a melting point of over 300 °C. The IC50 in [1] turned out to be 310 ± 20 nM. Moreover, the IC50 in data set [2] (ref Wang et al., 2013) was 23 nM. Besides, the IC50 in [3] (ref Wang et al., 2013) is 350 nM.

Regarding `CC(=O)c1c(C)c2cnc(Nc3ccc(N4CCNCC4)cn3)nc2n(C2CCCC2)c1=O` [Palbociclib], the results for the IC50 in data set [4], in [5] and in data set [6] were […], […] and 15 nM, respectively.

`Cl.NCc1cccc(-c2nc(Nc3cccc([N+](=O)[O-])c3)nc3[nH]cnc23)c1` [Compound 11c, 6-(3-(aminomethyl)phenyl)-N-(3-nitrophenyl)-9H-purin-2-amine hydrochloride] gave a melting point of 236 to 238 °C. The IC50 in [1] was 110 ± 10 nM. Besides, in data set [7], the IC50 came out at 240 ± 40 nM and the “selectivity for CDK2 over CDK1” value is given as 2 fold. Also, in [8], the IC50 is 2200 ± 100 nM and the “selectivity for CDK2 over CDK6” value is 18 fold. Further, in data set [9], the “selectivity for CDK2 over CDK8” value is given as “more than 42 fold”, the “CDK8/cyclin C Inhibition rate @5 μM (%)” value came to 19% and the inhibition at 5 µM was under 20%. Also, in data set [10], the IC50 was 8110 to 15700 nM. In addition, the “effect on cell cycle (percentage of cells in G2/M phase)” value in [11] is “increased the percentage of cells in the G2/M phase”.

In the case of `Cl.NCc1ccc(-c2nc(Nc3cccc([N+](=O)[O-])c3)nc3[nH]cnc23)cc1` [Compound 11d, 6-(4-(aminomethyl)phenyl)-N-(3-nitrophenyl)-9H-purin-2-amine hydrochloride], the melting point was over 300 °C. Moreover, in [1], the IC50 is 230 ± 10 nM.

Take `NS(=O)(=O)c1ccc(Nc2nc(-c3cccc(-c4ccccc4)c3)c3nc[nH]c3n2)cc1` [compound 73, reference compound]: the IC50 is 44 nM in [2] (ref Coxon et al., 2017) and 86000 nM in [3] (ref Coxon et al., 2017).

In turn, `COC(=O)c1ccc(-c2nc(Nc3cccc([N+](=O)[O-])c3)nc3[nH]cnc23)cc1` [Compound 5k, Methyl 4-(2-((3-nitrophenyl)amino)-9H-purin-6-yl)benzoate] yielded a melting point of 212 to 214 °C. In [1], the inhibition at 0.5 µM is 3% and the “CDK2 inhibitory activity (in words)” value is given as “abolished CDK2 inhibitory activity”.

With `Cl.NCc1cccc(-c2nc(Nc3ccccc3)nc3[nH]cnc23)c1` [Compound 11f, 6-(3-(aminomethyl)phenyl)-N-phenyl-9H-purin-2-amine hydrochloride], the melting point is 203 to 205 °C. Also, the inhibition at 0.5 µM in [1] was determined as 35%.

In the case of `COC(=O)c1cccc(-c2nc(Nc3cccc([N+](=O)[O-])c3)nc3[nH]cnc23)c1` [Compound 5h, Methyl 3-(2-((3-nitrophenyl)amino)-9H-purin-6-yl)benzoate], the melting point amounted to 257 °C. In data set [1], the inhibition at 0.5 µM came to 11% and the “CDK2 inhibitory activity (in words)” value was “abolished CDK2 inhibitory activity”.

For `O=[N+]([O-])c1cccc(Nc2nc(-c3ccc4c(c3)OCO4)c3nc[nH]c3n2)c1` [Compound 5d, 6-(benzo[d][1,3]dioxol-5-yl)-N-(3-nitrophenyl)-9H-purin-2-amine], the melting point was 260 °C (dec.). Also, in data set [1], the inhibition at 0.5 µM is 7% and the “CDK2 inhibitory activity (in words)” value is given as “weak activity”.

As to `Cl.Nc1ccc(-c2nc(Nc3cccc([N+](=O)[O-])c3)nc3[nH]cnc23)cc1` [Compound 11b, 6-(4-aminophenyl)-N-(3-nitrophenyl)-9H-purin-2-amine hydrochloride], the melting point was over 300 °C. Moreover, in data set [1], the inhibition at 0.5 µM came out at 40%.

Turning to `Cl.NCc1cccc(-c2nc(Nc3ccc(F)cc3)nc3[nH]cnc23)c1` [Compound 11n, 6-(3-(aminomethyl)phenyl)-N-(4-fluorophenyl)-9H-purin-2-amine hydrochloride], the melting point is over 300 °C. Also, the half-maximal inhibitory concentration (IC50) in data set [1] stood at 320 ± 60 nM.

As to `Cl.Cl.NCc1cccc(-c2nc(Nc3cccc(N)c3)nc3[nH]cnc23)c1` [Compound 11m, N ^ 1-(6-(3-(aminomethyl)phenyl)-9H-purin-2-yl)benzene-1,3-diamine dihydrochloride], the melting point is over 300 °C. The inhibition at 0.5 µM in data set [1] is 33%.

For the molecule `Cl.O=[N+]([O-])c1cccc(Nc2nc(-c3ccc[nH]3)c3nc[nH]c3n2)c1` [Compound 5c, N-(3-nitrophenyl)-6-(1H-pyrrol-2-yl)-9H-purin-2-amine hydrochloride], the melting point was 236 °C (dec.). For the same molecule, the inhibition at 0.5 µM in data set [1] was 37%.

Consider `Cl.NCc1cccc(-c2nc(Nc3ccc(-c4ccccc4)cc3)nc3[nH]cnc23)c1` [Compound 11h, N-([1,1′-biphenyl]-4-yl)-6-(3-(aminomethyl)phenyl)-9H-purin-2-amine hydrochloride], for which the melting point is 210 °C (dec.). Moreover, the inhibition at 0.5 µM in data set [1] was 13%.

On to `Cl.NCc1cccc(-c2nc(Nc3ccc(S(N)(=O)=O)cc3)nc3[nH]cnc23)c1` [Compound 11l, 4-((6-(3-(aminomethyl)phenyl)-9H-purin-2-yl)amino)benzenesulfonamide hydrochloride], for which, in [1], the IC50 was 19 ± 1 nM. Besides, in data set [7], inhibition was half-maximal at 120 ± 20 nM (IC50) and the “selectivity for CDK2 over CDK1” value lay within 4.6 to 6.3 fold. Further, in data set [8], the IC50 came to 2700 ± 500 nM and the “selectivity for CDK2 over CDK6” value is recorded as “more than 140 fold”. Further, in data set [9], the “selectivity for CDK2 over CDK8” value is “more than 140 fold”, the “CDK8/cyclin C Inhibition rate @5 μM (%)” value amounted to 11% and the inhibition at 5 µM was under 20%. This molecule showed an IC50 in data set [10] of 8110 to 15700 nM. The molecule further came in with an IC50 at 48 h in [12] of over 100000 nM. Moreover, in data set [11], the “effect on cell cycle (percentage of cells in G2/M phase)” value was “increased the percentage of cells in the G2/M phase”.

For `CNS(=O)(=O)c1ccc(Nc2nc(-c3cccc(CN)c3)c3nc[nH]c3n2)cc1.Cl` [Compound 11p, 4-((6-(3-(aminomethyl)phenyl)-9H-purin-2-yl)amino)-N-methylbenzenesulfonamide hydrochloride], the melting point was over 300 °C. In addition, the IC50 in data set [1] came to 32 ± 1 nM. In addition, in data set [7], the IC50 was 150 ± 20 nM and the “selectivity for CDK2 over CDK1” value is reported as 4.6 to 6.3 fold. In data set [8], it took 4800 ± 100 nM to reach half-maximal inhibition (IC50) and the “selectivity for CDK2 over CDK6” value was “more than 140 fold”. For the same molecule, in data set [9], the “selectivity for CDK2 over CDK8” value is “more than 140 fold”, the “CDK8/cyclin C Inhibition rate @5 μM (%)” value was found to be 15% and the inhibition at 5 µM was under 20%. In addition, in data set [10], the IC50 lay in the range of 8110 to 15700 nM. Also, in [11], the “effect on cell cycle (percentage of cells in G2/M phase)” value was “increased the percentage of cells in the G2/M phase”.

Regarding `O=C(O)c1ccc(-c2nc(Nc3cccc([N+](=O)[O-])c3)nc3[nH]cnc23)cc1` [Compound 5j, 4-(2-((3-nitrophenyl)amino)-9H-purin-6-yl)benzoic acid], the melting point is over 300 °C. For the same molecule, in data set [1], the inhibition at 0.5 µM was 7% and the “CDK2 inhibitory activity (in words)” value is “low activity”.
